The results in this text go back to paper PMC5579037, “Modification of the response of olfactory receptors to acetophenone by CYP1a2” (Scientific Reports, 2017).

Holding throughout (assay type): cell-based
Experiment [1] concerns the target T1, MOR164-2 (Mus musculus, UniProt Q7TRB9).
T1 construct: gene Or8b56; ORF from mouse genomic DNA, N-terminal Rho-tag, pCI; Hana3A cells with RTP1S and M3-R
T1 sequence (Q7TRB9 1-317): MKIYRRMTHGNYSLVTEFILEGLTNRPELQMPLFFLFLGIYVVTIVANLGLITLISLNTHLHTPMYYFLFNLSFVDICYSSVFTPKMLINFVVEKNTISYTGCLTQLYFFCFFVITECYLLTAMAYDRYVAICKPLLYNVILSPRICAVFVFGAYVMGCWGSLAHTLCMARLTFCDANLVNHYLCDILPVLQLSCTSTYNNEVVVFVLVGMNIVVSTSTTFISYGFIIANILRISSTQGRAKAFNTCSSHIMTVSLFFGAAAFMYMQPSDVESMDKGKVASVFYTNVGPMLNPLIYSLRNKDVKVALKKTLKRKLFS
The experiment in a line: CRE-luciferase reporter assay in Hana3A cells. The note with it: no CYP co-expressed; RTP1S and M3-R; 3 h, 37 °C; agonist. For orientation: Reporter assays use an easily measured gene product as a stand-in for the process of interest.

Experiment [2] concerns the target T2, MOR123-2 (Mus musculus, UniProt E9Q8M2).
T2 construct: gene Or10aa3; ORF from mouse genomic DNA, N-terminal Rho-tag, pCI; Hana3A cells with RTP1S and M3-R
T2 sequence (E9Q8M2 1-312): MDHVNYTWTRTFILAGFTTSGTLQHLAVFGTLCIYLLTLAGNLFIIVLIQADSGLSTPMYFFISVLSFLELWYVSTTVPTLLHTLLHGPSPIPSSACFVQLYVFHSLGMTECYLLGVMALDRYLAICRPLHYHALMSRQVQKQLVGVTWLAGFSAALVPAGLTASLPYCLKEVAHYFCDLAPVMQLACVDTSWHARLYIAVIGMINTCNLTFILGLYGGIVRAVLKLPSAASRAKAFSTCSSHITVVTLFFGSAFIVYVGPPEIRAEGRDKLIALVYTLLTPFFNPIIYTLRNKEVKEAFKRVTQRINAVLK
In words: CRE-luciferase reporter assay in Hana3A cells. The note with it: no CYP co-expressed; RTP1S and M3-R; 3 h, 37 °C; agonist.

In experiment [3] the target is T3, MOR161-2 (Mus musculus, UniProt Q7TRE6).
T3 construct: gene Or8b12; Hana3A cells with RTP1S and M3-R
T3 sequence (Q7TRE6 1-310): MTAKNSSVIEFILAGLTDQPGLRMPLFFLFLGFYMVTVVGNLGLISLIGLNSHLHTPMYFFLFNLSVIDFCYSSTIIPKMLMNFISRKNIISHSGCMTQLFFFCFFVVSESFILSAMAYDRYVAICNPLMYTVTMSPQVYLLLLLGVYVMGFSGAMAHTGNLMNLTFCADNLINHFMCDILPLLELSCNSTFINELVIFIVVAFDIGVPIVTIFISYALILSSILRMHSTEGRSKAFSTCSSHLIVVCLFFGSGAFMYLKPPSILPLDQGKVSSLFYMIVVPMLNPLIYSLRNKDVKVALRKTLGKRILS
In words: CRE-luciferase reporter assay in Hana3A cells. The note with it: no CYP co-expressed; RTP1S and M3-R; 3 h, 37 °C; agonist.

Experiment [4] concerns the target T4, CYP1a2 (Mus musculus, UniProt P00186).
T4 construct: cDNA from mouse olfactory epithelium library, pCI vector, expressed in Hana3A cells
T4 sequence (P00186 2-513): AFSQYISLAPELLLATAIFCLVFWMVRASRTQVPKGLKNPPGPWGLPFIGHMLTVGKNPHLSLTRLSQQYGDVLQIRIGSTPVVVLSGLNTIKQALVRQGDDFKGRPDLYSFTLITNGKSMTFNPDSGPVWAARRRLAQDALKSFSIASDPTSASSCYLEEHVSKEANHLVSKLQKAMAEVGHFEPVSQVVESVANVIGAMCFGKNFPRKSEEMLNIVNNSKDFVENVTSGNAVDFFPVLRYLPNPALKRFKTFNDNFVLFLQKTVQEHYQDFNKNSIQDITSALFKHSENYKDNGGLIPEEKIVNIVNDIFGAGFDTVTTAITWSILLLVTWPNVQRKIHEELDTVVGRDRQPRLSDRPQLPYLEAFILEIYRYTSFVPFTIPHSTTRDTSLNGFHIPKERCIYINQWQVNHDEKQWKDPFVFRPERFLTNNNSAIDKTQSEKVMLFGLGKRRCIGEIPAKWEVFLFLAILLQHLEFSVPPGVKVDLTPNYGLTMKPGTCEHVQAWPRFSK
The experiment in a line: P450-Glo luminescence assay in transfected Hana3A cells. The note with it: CD293 medium, 3 h, 37 °C; against mock transformant.

Take `CC(=O)c1ccccc1` [acetophenone]: the “CRE-luciferase reporter assay in Hana3A cells” value in experiment [1] was “We observed effects of CYPs on the responses of MOR123-2, MOR161-2 and MOR164-2”; in experiment [2] it was “We observed effects of CYPs on the responses of MOR123-2, MOR161-2 and MOR164-2”; in experiment [3], “We compared the response of MOR161-2 against acetophenone and methyl salicylate”.

Consider `COc1ccc2nc(C3=NC(C(=O)O)CS3)sc2c1` (stereo not shown) [luciferin-ME], for which the “P450-Glo luminescence assay in transfected Hana3A cells” value in experiment [4] is listed as “Functional expression of CYP1a2 in Hana3A cells was confirmed by the P450-Glo assay using luciferin-ME”. As for `COC(=O)c1ccccc1` [methyl benzoate], in experiment [3], the “CRE-luciferase reporter assay in Hana3A cells” value is “Potential intermediates are methyl benzoate and salicylate, and indeed MOR161-2 responded to both of them”. The same measure, in the same setting: the entry for `COC(=O)c1ccccc1O` [methyl salicylate] is “MOR161-2 showed a larger response to methyl salicylate than acetophenone”; for `O=C(O)c1ccccc1O` [salicylic acid] it is “Potential intermediates are methyl benzoate and salicylate, and indeed MOR161-2 responded to both of them”.
